Where a name gives a salt, the structure may show the parent alone.
Row | melting point [°C] | SMILES
1 | 88 | CN1CCN(c2ccc(CNC(=O)Nc3nc4ccc(OS(=O)(=O)c5c(Cl)cccc5Cl)cc4s3)cc2)CC1 (as salt: benzene-sulfonate) [Example 52, 2-({[4-(4-methylpiperazin-1-yl)benzyl]carbamoyl}amino)-1,3-benzothiazol-6-yl 2,6-dichlorobenzene-sulfonate]
2 | 171 | COCCNC(=O)Nc1nc2cc(OS(=O)(=O)c3c(Cl)cccc3Cl)ccc2[nH]1 (as salt: benzenesulfonate) [Example 1, 2-{[(2-methoxyethyl)carbamoyl]amino}-1H-benzimidazol-5-yl 2,6-dichlorobenzenesulfonate]
3 | 138 | COCCNC(=O)Nc1nc2cc(OS(=O)(=O)c3c(C)cccc3Cl)ccc2[nH]1 (as salt: benzenesulfonate) [Example 2, 2-{[(2-Methoxyethyl)carbamoyl]amino}-1H-benzimidazol-5-yl 2-chloro-6-methylbenzenesulfonate]
4 | 140 | COCCNC(=O)Nc1nc2cc(OS(=O)(=O)c3c(C)cc(C)cc3C)ccc2[nH]1 (as salt: benzenesulfonate) [Example 3, 2-{[(2-Methoxyethyl)carbamoyl]amino}-1H-benzimidazol-5-yl 2,4,6-trimethylbenzenesulfonate]
5 | 149 | O=C(NCCN1CCOCC1)Nc1nc2cc(OS(=O)(=O)c3c(Cl)cccc3Cl)ccc2[nH]1 (as salt: benzenesulfonate) [Example 5, 2-{[(2-Morpholin-4-ylethyl)carbamoyl]amino}-1H-benzimidazol-5-yl 2,6-dichlorobenzenesulfonate]
6 | 190 to 192 | O=C(NCCN1CCOCC1)Nc1nc2cc(OS(=O)(=O)c3c(F)cccc3F)ccc2[nH]1 (as salt: benzenesulfonate) [Example 9, 2-{[(2-Morpholin-4-ylethyl)carbamoyl]amino}-1H-benzimidazol-5-yl 2,6-difluorobenzenesulfonate]
7 | 160 to 165 | O=C(Nc1nc2cc(OS(=O)(=O)c3c(Cl)cccc3Cl)ccc2[nH]1)NC1CC1 (as salt: benzenesulfonate) [Example 12, 2-[(Cyclopropylcarbamoyl)amino]-1H-benzimidazol-5-yl 2,6-dichlorobenzenesulfonate]
8 | 204 | O=C(NCc1ccccn1)Nc1nc2cc(OS(=O)(=O)c3c(Cl)cccc3Cl)ccc2[nH]1 (as salt: benzenesulfonate) [Example 15, 2-{[(Pyridin-2-ylmethyl)carbamoyl]amino}-1H-benzimidazol-5-yl 2,6-dichlorobenzenesulfonate]
9 | 210 | O=C(NCc1cccnc1)Nc1nc2cc(OS(=O)(=O)c3c(Cl)cccc3Cl)ccc2[nH]1 (as salt: benzenesulfonate) [Example 16, 2-{[(Pyridin-3-ylmethyl)carbamoyl]amino}-1H-benzimidazol-5-yl 2,6-dichlorobenzenesulfonate]
10 | 165 to 170 | O=C(NCc1ccncc1)Nc1nc2cc(OS(=O)(=O)c3c(Cl)cccc3Cl)ccc2[nH]1 (as salt: benzenesulfonate) [Example 17, 2-{[(Pyridin-4-ylmethyl)carbamoyl]amino}-1H-benzimidazol-5-yl 2,6-dichlorobenzenesulfonate]
11 | 195 | O=C(NCc1ccccc1)Nc1nc2cc(OS(=O)(=O)c3c(Cl)cccc3Cl)ccc2[nH]1 (as salt: benzenesulfonate) [Example 18, 2-[(Benzylcarbamoyl)amino]-1H-benzimidazol-5-yl 2,6-dichlorobenzenesulfonate]
12 | 131 | O=C(NCCc1cccnc1)Nc1nc2cc(OS(=O)(=O)c3c(Cl)cccc3Cl)ccc2[nH]1 (as salt: benzenesulfonate) [Example 19, 2-{[(2-Pyridin-3-ylethyl)carbamoyl]amino}-1H-benzimidazol-5-yl 2,6-dichlorobenzenesulfonate]
13 | 180 | CN1CCN(CCNC(=O)Nc2nc3cc(OS(=O)(=O)c4c(Cl)cccc4Cl)ccc3[nH]2)CC1 (as salt: benzenesulfonate) [Example 20, 2-({[2-(4-Methylpiperazin-1-yl)ethyl]carbamoyl}amino)-1H-benzimidazol-5-yl 2,6-dichlorobenzenesulfonate]
14 | 145 to 150 | O=C(NCCN1CCNCC1)Nc1nc2cc(OS(=O)(=O)c3c(Cl)cccc3Cl)ccc2[nH]1 (as salt: benzenesulfonate) [Example 21, 2-{[(2-piperazin-1-ylethyl)carbamoyl]amino}-1H-benzimidazol-5-yl 2,6-dichlorobenzenesulfonate]
15 | 165 | O=C(NCCC1CCNCC1)Nc1nc2cc(OS(=O)(=O)c3c(Cl)cccc3Cl)ccc2[nH]1 (as salt: benzenesulfonate) [Example 22, 2-{[(2-Piperidin-4-ylethyl)carbamoyl]amino}-1H-benzimidazol-5-yl 2,6-dichlorobenzenesulfonate]
16 | 242 | O=C(Nc1nc2cc(OS(=O)(=O)c3c(Cl)cccc3Cl)ccc2[nH]1)C1CC1 (as salt: benzenesulfonate) [Example 24, 2-[(Cyclopropylcarbonyl)amino]-1H-benzimidazol-5-yl 2,6-dichlorobenzenesulfonate]

Row | melting point [°C] | SMILES
17 | 188 | O=C(CCc1cccnc1)Nc1nc2cc(OS(=O)(=O)c3c(Cl)cccc3Cl)ccc2[nH]1 (as salt: benzenesulfonate) [Example 25, 2-[(3-Pyridin-3-ylpropanoyl)amino]-1H-benzimidazol-5-yl 2,6-dichlorobenzenesulfonate]
18 | 135 | O=C(CCC1CCN(C(=O)c2ccccc2)CC1)Nc1nc2cc(OS(=O)(=O)c3c(Cl)cccc3Cl)ccc2[nH]1 (as salt: benzenesulfonate) [Example 26, 2-{[3-(1-Benzoylpiperidin-4-yl)propanoyl]amino}-1H-benzimidazol-5-yl 2,6-dichlorobenzenesulfonate]
19 | 135 | O=C(CCC1CCNCC1)Nc1nc2cc(OS(=O)(=O)c3c(Cl)cccc3Cl)ccc2[nH]1 (as salt: benzenesulfonate) [Example 27, 2-[(3-Piperidin-4-ylpropanoyl)amino]-1H-benzimidazol-5-yl 2,6-dichlorobenzenesulfonate]
20 | 174 | O=C(Nc1nc2cc(OS(=O)(=O)c3c(F)cccc3F)ccc2[nH]1)C1CC1 (as salt: benzenesulfonate) [Example 29, 2-[(Cyclopropylcarbonyl)amino]-1H-benzimidazol-5-yl 2,6-difluorobenzenesulfonate]
21 | 118 | O=C(NCc1ccccn1)Nc1nc2ccc(OS(=O)(=O)c3c(Cl)cccc3Cl)cc2s1 (as salt: benzenesulfonate) [Example 30, 2-{[(Pyridin-2-ylmethyl)carbamoyl]amino}-1,3-benzothiazol-6-yl 2,6-dichlorobenzenesulfonate]
22 | 128 | O=C(Nc1nc2ccc(OS(=O)(=O)c3c(Cl)cccc3Cl)cc2s1)NC1CC1 (as salt: benzenesulfonate) [Example 31, 2-[(Cyclopropylcarbamoyl)amino]-1,3-benzothiazol-6-yl 2,6-dichlorobenzenesulfonate]
23 | 105 | O=C(NCCC1CCN(Cc2ccccc2)CC1)Nc1nc2ccc(OS(=O)(=O)c3c(Cl)cccc3Cl)cc2s1 (as salt: benzenesulfonate) [Example 33, 2-({[2-(1-Benzylpiperidin-4-yl)ethyl]carbamoyl}amino)-1,3-benzothiazol-6-yl 2,6-dichlorobenzenesulfonate]
24 | 102 | O=C(NCCN1CCN(Cc2ccccc2)CC1)Nc1nc2ccc(OS(=O)(=O)c3c(Cl)cccc3Cl)cc2s1 (as salt: benzenesulfonate) [Example 34, 2-({[2-(4-Benzylpiperazin-1-yl)ethyl]carbamoyl}amino)-1,3-benzothiazol-6-yl 2,6-dichlorobenzenesulfonate]
25 | 158 | O=C(NCCN1CCNCC1)Nc1nc2ccc(OS(=O)(=O)c3c(Cl)cccc3Cl)cc2s1 (as salt: benzenesulfonate) [Example 36, 2-{[(2-piperazin-1-ylethyl)carbamoyl]amino}-1,3-benzothiazol-6-yl 2,6-dichlorobenzenesulfonate]
26 | 100 | O=C(NCCN1CCOCC1)Nc1nc2ccc(OS(=O)(=O)c3ccccc3Cl)cc2s1 (as salt: benzenesulfonate) [Example 40, 2-{[(2-Morpholin-4-ylethyl)carbamoyl]amino}-1,3-benzothiazol-6-yl 2-chlorobenzenesulfonate]
27 | 145 | O=C(Nc1nc2ccc(OS(=O)(=O)c3c(F)cccc3F)cc2s1)C1CC1 (as salt: benzenesulfonate) [Example 41, 2-[(Cyclopropylcarbonyl)amino]-1,3-benzothiazol-6-yl 2,6-difluorobenzenesulfonate]
28 | 240 | O=C(CCc1cccnc1)Nc1nc2ccc(OS(=O)(=O)c3c(Cl)cccc3Cl)cc2s1 (as salt: benzenesulfonate) [Example 43, 2-[(3-Pyridin-3-ylpropanoyl)amino]-1,3-benzothiazol-6-yl 2,6-dichlorobenzenesulfonate]
29 | 179 | O=C(CCN1CCOCC1)Nc1nc2ccc(OS(=O)(=O)c3c(Cl)cccc3Cl)cc2s1 (as salt: benzenesulfonate) [Example 44, 2-[(3-Morpholin-4-ylpropanoyl)amino]-1,3-benzothiazol-6-yl 2,6-dichlorobenzenesulfonate]
30 | 218 | O=C(Cc1cccnc1)Nc1nc2ccc(OS(=O)(=O)c3c(Cl)cccc3Cl)cc2s1 (as salt: benzenesulfonate) [Example 45, 2-[(Pyridin-3-ylacetyl)amino]-1,3-benzothiazol-6-yl 2,6-dichlorobenzenesulfonate]
31 | 134 | O=C(CCC1CCNCC1)Nc1nc2ccc(OS(=O)(=O)c3c(Cl)cccc3Cl)cc2s1 (as salt: benzenesulfonate) [Example 47, 2-[(3-Piperidin-4-ylpropanoyl)amino]-1,3-benzothiazol-6-yl 2,6-dichlorobenzenesulfonate]

Row | SMILES | melting point [°C]
32 | CC(C)(C)OC(=O)Nc1nc2cc(OS(=O)(=O)c3c(Cl)cccc3Cl)ccc2[nH]1 (as salt: benzenesulfonate) [Example 23, 2-[(tert-Butoxycarbonyl)amino]-1H-benzimidazol-5-yl 2,6-dichlorobenzenesulfonate] | 205
